According to patent publication US20250235543A1, “MODIFIED PROTEINS AND PROTEIN DEGRADERS” (Cullgen (Shanghai), Inc., priority 2021, published 2025):
Read-outs that look alike come from different tables or passages of the source.

Tests used:
CDK4 = molecular target: T1, CDK4 (Homo sapiens, UniProt P11802); assay: CDK4 percentage degradation in Calu-1 cells (immunoblotting); assay type: cell-based; settings: for inhibition at 0.2 µM: read-out: CDK4 Degradation (200 nM)
T1 construct: endogenous in cells; host or cells: Calu-1
Protocol: (§1) […] A: protein percentage degradation >=80%; B: protein percentage degradation <80%, and >=50%; C: protein percentage degradation <50%, and >=30%; D: protein percentage degradation <30%.
(§2) Cultured cells were washed with cold PBS once and lysed in cold RIPA buffer supplemented with protease inhibitors and phosphatase inhibitors (Beyotime Biotechnology). The solutions were then incubated at 4° C. for 30 min with gentle agitation to fully lysed cells. Cell lysates were centrifuged at 13,000 rpm for 10 min at 4° C. and pellets were discarded. Total protein concentrations in the lysates were determined following BCA assays (Beyotime Biotechnology). Cell lysates were mixed with Laemmli loading buffer and heated at 99° C. for 5 min. Proteins were resolved on SDS-PAGE and visualized using Western ECL Substrate kits on a ChemiDoc MP Imaging system (Bio-Rad). Protein bands were quantitated using the Image Lab software provided by Bio-Rad.

cyclin D1 = assay: Cyclin D1 percentage degradation in Calu-1 cells (immunoblotting); assay type: cell-based; settings: 16 hours
Protocol: as §1, §2

T1 sequence (P11802 2-303 limits assumed): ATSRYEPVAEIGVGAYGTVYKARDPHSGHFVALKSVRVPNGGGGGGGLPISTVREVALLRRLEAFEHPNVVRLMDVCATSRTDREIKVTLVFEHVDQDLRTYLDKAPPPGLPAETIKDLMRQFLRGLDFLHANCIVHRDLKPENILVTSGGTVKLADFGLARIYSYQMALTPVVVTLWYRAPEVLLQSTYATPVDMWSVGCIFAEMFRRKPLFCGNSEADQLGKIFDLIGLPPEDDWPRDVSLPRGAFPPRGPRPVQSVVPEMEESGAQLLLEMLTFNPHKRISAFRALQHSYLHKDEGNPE
T1 sequence (P24385 whole entry partner): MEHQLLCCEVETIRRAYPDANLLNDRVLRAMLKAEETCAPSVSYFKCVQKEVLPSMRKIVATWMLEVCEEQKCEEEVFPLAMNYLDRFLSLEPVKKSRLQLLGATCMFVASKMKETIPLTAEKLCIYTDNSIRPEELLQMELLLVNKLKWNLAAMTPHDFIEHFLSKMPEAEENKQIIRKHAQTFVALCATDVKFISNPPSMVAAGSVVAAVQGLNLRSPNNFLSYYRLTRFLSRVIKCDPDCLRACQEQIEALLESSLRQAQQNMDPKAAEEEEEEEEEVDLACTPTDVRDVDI
T1 sequence (Q16531 2-1140 limits assumed, further chain): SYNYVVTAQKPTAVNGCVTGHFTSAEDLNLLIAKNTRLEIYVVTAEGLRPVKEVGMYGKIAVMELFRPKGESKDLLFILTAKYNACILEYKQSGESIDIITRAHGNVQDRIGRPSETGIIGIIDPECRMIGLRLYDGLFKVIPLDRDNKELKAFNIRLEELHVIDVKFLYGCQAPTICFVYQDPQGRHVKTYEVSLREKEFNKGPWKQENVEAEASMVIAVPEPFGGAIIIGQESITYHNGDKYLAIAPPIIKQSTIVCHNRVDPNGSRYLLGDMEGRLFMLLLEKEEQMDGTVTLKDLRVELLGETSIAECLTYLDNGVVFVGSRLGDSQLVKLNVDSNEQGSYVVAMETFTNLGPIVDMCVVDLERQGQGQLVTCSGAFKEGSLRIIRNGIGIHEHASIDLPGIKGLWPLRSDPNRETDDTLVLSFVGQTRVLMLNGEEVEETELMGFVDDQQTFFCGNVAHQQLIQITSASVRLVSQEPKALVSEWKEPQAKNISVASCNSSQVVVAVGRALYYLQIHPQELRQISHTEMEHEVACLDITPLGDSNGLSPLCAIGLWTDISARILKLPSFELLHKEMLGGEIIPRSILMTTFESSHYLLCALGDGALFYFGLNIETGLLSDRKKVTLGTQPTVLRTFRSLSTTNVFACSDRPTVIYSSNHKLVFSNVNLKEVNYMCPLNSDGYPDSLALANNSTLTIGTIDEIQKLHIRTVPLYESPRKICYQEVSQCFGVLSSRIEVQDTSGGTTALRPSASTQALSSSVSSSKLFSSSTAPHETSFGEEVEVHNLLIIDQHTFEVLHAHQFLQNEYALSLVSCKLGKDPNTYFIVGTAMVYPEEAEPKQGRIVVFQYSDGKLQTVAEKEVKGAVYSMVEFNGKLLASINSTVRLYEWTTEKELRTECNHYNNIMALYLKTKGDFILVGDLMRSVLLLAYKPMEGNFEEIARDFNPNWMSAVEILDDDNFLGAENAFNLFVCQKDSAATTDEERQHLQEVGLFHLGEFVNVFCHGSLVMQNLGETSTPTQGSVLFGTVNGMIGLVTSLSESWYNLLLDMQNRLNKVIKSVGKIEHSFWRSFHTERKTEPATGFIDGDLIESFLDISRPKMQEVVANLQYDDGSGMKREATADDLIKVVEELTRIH

Structure (SMILES) | inhibition at 0.2 µM (CDK4; Calu-1, 16 h) [%] | CyclinD1 Degradation (200 nM) (cyclin D1) | inhibition at 0.2 µM (CDK4; Calu-1 cells, 200 nM, 16 hours) [%] | inhibition at 10 µM (CDK4; Calu-1 cells, 10 μM, 16 hours, read-out: CDK4 Degradation (10 μM)) [%] | CyclinD1 Degradation (10 μM) (cyclin D1; 10 μM)
CC(=O)c1c(C)c2cnc(Nc3ccc(N4CCN(C(=O)CCCCCCCC(=O)Nc5ccccc5C(=O)Nc5nc(C)c(C)s5)CC4)cn3)nc2n(C2CCCC2)c1=O [CPD-160, 2-(9-(4-(6-((6-Acetyl-8-cyclopentyl-5-methyl-7-oxo-7,8-dihydropyrido[2,3-d]pyrimidin-2-yl)amino)pyridin-3-yl)piperazin-1-yl)-9-oxononanamido)-N-(4,5-dimethylthiazol-2-yl)benzamide] | 50 to 80 | C (protein percentage degradation <50%, and >=30%) | – | – | –
CC(=O)c1c(C)c2cnc(Nc3ccc(N4CCN(CC(=O)NCCOCCOCCC(=O)Nc5ccccc5C(=O)Nc5cc(C)n(C(C)C)n5)CC4)cn3)nc2n(C2CCCC2)c1=O [CPD-076, 2-(3-(2-(2-(2-(4-(6-((6-Acetyl-8-cyclopentyl-5-methyl-7-oxo-7,8-dihydropyrido[2,3-d]pyrimidin-2-yl)amino)pyridin-3-yl)piperazin-1-yl)acetamido)ethoxy)ethoxy)propanamido)-N-(1-isopropyl-5-methyl-1H-pyrazol-3-yl)benzamide] | – | C (protein percentage degradation <50%, and >=30%) | 50 to 80 | – | –
CC(=O)c1c(C)c2cnc(Nc3ccc(N4CCN(CC(=O)NCCOCCOCCOCCOCCOCCNc5ccc(C(=O)Nc6ccccc6)c(C)c5)CC4)cn3)nc2n(C2CCCC2)c1=O [CPD-027, 4-((1-(4-(6-((6-Acetyl-8-cyclopentyl-5-methyl-7-oxo-7,8-dihydropyrido[2,3-d]pyrimidin-2-yl)amino)pyridin-3-yl)piperazin-1-yl)-2-oxo-6,9,12,15,18-pentaoxa-3-azaicosan-20-yl)amino)-2-methyl-N-phenylbenzamide] | < 30 | D (protein percentage degradation <30%) | – | – | –
COc1ccc(NC(=O)c2ccccc2NC(=O)CCOCCOCCNC(=O)CN2CCN(c3ccc(Nc4ncc5c(C)c(C(C)=O)c(=O)n(C6CCCC6)c5n4)nc3)CC2)nn1 [CPD-085, 2-(3-(2-(2-(2-(4-(6-((6-Acetyl-8-cyclopentyl-5-methyl-7-oxo-7,8-dihydropyrido[2,3-d]pyrimidin-2-yl)amino)pyridin-3-yl)piperazin-1-yl)acetamido)ethoxy)ethoxy)propanamido)-N-(6-methoxypyridazin-3-yl)benzamide] | – | A (protein percentage degradation >=80%) | > 80 | – | –
CC(=O)c1c(C)c2cnc(Nc3ccc(N4CCN(CC(=O)NCCOCCOCCOCCNC(=O)COc5ccc(C(=O)Nc6ncc(C)s6)c(C)c5)CC4)cn3)nc2n(C2CCCC2)c1=O [CPD-040, 4-((17-(4-(6-((6-Acetyl-8-cyclopentyl-5-methyl-7-oxo-7,8-dihydropyrido[2,3-d]pyrimidin-2-yl)amino)pyridin-3-yl)piperazin-1-yl)-2,16-dioxo-6,9,12-trioxa-3,15-diazaheptadecyl)oxy)-2-methyl-N-(5-methylthiazol-2-yl)benzamide] | – | D (protein percentage degradation <30%) | < 30 | – | –
CC(=O)c1c(C)c2cnc(Nc3ccc(N4CCN(CC(=O)NCCOCCOCCC(=O)Nc5ccccc5C(=O)Nc5ccc(C#N)cn5)CC4)cn3)nc2n(C2CCCC2)c1=O [CPD-083, 2-(3-(2-(2-(2-(4-(6-((6-Acetyl-8-cyclopentyl-5-methyl-7-oxo-7,8-dihydropyrido[2,3-d]pyrimidin-2-yl)amino)pyridin-3-yl)piperazin-1-yl)acetamido)ethoxy)ethoxy)propanamido)-N-(5-cyanopyridin-2-yl)benzamide] | – | A (protein percentage degradation >=80%) | 50 to 80 | – | –
CC(=O)c1c(C)c2cnc(Nc3ccc(N4CCN(C(=O)CCOCCOCCNc5ccc(C)c(C(=O)Nc6nc(C)c(C)s6)c5)CC4)cn3)nc2n(C2CCCC2)c1=O [CPD-130, 5-((2-(2-(3-(4-(6-((6-Acetyl-8-cyclopentyl-5-methyl-7-oxo-7,8-dihydropyrido[2,3-d]pyrimidin-2-yl)amino)pyridin-3-yl)piperazin-1-yl)-3-oxopropoxy)ethoxy)ethyl)amino)-N-(4,5-dimethylthiazol-2-yl)-2-methylbenzamide] | < 30 | D (protein percentage degradation <30%) | – | – | –
CC(=O)c1c(C)c2cnc(Nc3ccc(N4CCN(CC(=O)NCCOCCOCCOCCOCCOCCNc5ccc(C(=O)Nc6ncc(F)s6)c(C)c5)CC4)cn3)nc2n(C2CCCC2)c1=O [CPD-028, 4-((1-(4-(6-((6-Acetyl-8-cyclopentyl-5-methyl-7-oxo-7,8-dihydropyrido[2,3-d]pyrimidin-2-yl)amino)pyridin-3-yl)piperazin-1-yl)-2-oxo-6,9,12,15,18-pentaoxa-3-azaicosan-20-yl)amino)-N-(5-fluorothiazol-2-yl)-2-methylbenzamide] | – | D (protein percentage degradation <30%) | < 30 | – | –
CNc1ccc(C(=O)Nc2ccc(C)cn2)c(NC(=O)CCOCCOCCNC(=O)CN2CCN(c3ccc(Nc4ncc5c(C)c(C(C)=O)c(=O)n(C6CCCC6)c5n4)nc3)CC2)c1 [CPD-339, 2-(3-(2-(2-(2-(4-(6-((6-Acetyl-8-cyclopentyl-5-methyl-7-oxo-7,8-dihydropyrido[2,3-d]pyrimidin-2-yl)amino)pyridin-3-yl)piperazin-1-yl)acetamido)ethoxy)ethoxy)propanamido)-4-(methylamino)-N-(5-methylpyridin-2-yl)benzamide] | – | A (protein percentage degradation >=80%) | > 80 | – | –
CC(=O)c1c(C)c2cnc(Nc3ccc(N4CCN(CC(=O)NCCOCCOCCNC(=O)COc5ccc(C(=O)Nc6ncc(C)s6)c(C)c5)CC4)cn3)nc2n(C2CCCC2)c1=O [CPD-039, 4-((14-(4-(6-((6-Acetyl-8-cyclopentyl-5-methyl-7-oxo-7,8-dihydropyrido[2,3-d]pyrimidin-2-yl)amino)pyridin-3-yl)piperazin-1-yl)-2,13-dioxo-6,9-dioxa-3,12-diazatetradecyl)oxy)-2-methyl-N-(5-methylthiazol-2-yl)benzamide] | – | D (protein percentage degradation <30%) | < 30 | – | –
CC(=O)c1c(C)c2cnc(Nc3ccc(N4CCN(CCNCCOCCOCCC(=O)Nc5ccccc5C(=O)Nc5nc(C)c(C)s5)CC4)cn3)nc2n(C2CCCC2)c1=O [CPD-187, 2-(3-(2-(2-((2-(4-(6-((6-Acetyl-8-cyclopentyl-5-methyl-7-oxo-7,8-dihydropyrido[2,3-d]pyrimidin-2-yl)amino)pyridin-3-yl)piperazin-1-yl)ethyl)amino)ethoxy)ethoxy)propanamido)-N-(4,5-dimethylthiazol-2-yl)benzamide] | < 30 | D (protein percentage degradation <30%) | – | – | –
Cc1nc(NC(=O)c2ccccc2NC(=O)CCCCCNC(=O)CN2CCN(c3ccc(Nc4ncc(F)c(-c5cc(F)c6nc(C)n(C(C)C)c6c5)n4)nc3)CC2)sc1C [CPD-304, N-(4,5-Dimethylthiazol-2-yl)-2-(6-(2-(4-(6-((5-fluoro-4-(4-fluoro-1-isopropyl-2-methyl-1H-benzo[d]imidazol-6-yl)pyrimidin-2-yl)amino)pyridin-3-yl)piperazin-1-yl)acetamido)hexanamido)benzamide] | – | – | – | < 30 | D (protein percentage degradation < 30%)
